# Results published in ChEMBL document CHEMBL2401682, “Evaluation of Jatropha isabelli natural products and their synthetic analogs as potential antimalarial therapeutic agents” (Eur J Med Chem, 2013).
# How the values were obtained:
# Plasmodium falciparum [1] = assay: Antimalarial activity against chloroquine and pyrimethamine-resistant Plasmodium falciparum K1 infected in O-positive erythrocytes assessed as parasite growth inhibition after 72 hrs by DNA staining-based assay; type: functional, organism-based; settings: K1, 72 h
# HEK293 = assay: Cytotoxicity against HEK293 cells after 72 hrs by celltiter-glo assay; type: cell-based; settings: Homo sapiens, HEK293, 72 h
# BJ = assay: Cytotoxicity against human BJ cells after 72 hrs by celltiter-glo assay; type: cell-based
# HepG2 = assay: Cytotoxicity against human HepG2 cells after 72 hrs by celltiter-glo assay; type: cell-based; settings: HepG2, 72 h
# Raji = assay: Cytotoxicity against human Raji cells after 72 hrs by celltiter-glo assay; type: cell-based
# Plasmodium falciparum [2] = assay: Antimalarial activity against chloroquine-sensitive Plasmodium falciparum 3D7 infected in O-positive erythrocytes assessed as parasite growth inhibition after 72 hrs by DNA staining-based assay; type: functional, organism-based; settings: 3D7, 72 h
Compound,EC50 (Plasmodium falciparum [1]),EC50 (HEK293),EC50 (BJ),EC50 (HepG2),EC50 (Raji),EC50 (Plasmodium falciparum [2])
CC1=C2CC(C)(C)/C=C/[C@H](O)/C(C)=C\C3=C[C@H](C)C[C@]3(O2)C1=O,15 µM,26 µM,10.6 µM,18.7 µM,26 µM,9.23 µM
CC(=O)O[C@H]1/C=C/C(C)(C)CC2=C(C)C(=O)[C@]3(C[C@@H](C)C=C3/C=C\1C)O2,15 µM,26 µM,26 µM,26 µM,26 µM,3.2 µM
CC1=C2CC(C)(C)/C=C/[C@@H](O)/C(C)=C\C3=C[C@H](C)C[C@]3(O2)C1=O,15 µM,26 µM,26 µM,26 µM,26 µM,0.744 µM
CC(=O)O[C@@H]1/C=C/C(C)(C)CC2=C(C)C(=O)[C@]3(C[C@@H](C)C=C3/C=C\1C)O2,15 µM,26 µM,26 µM,26 µM,26 µM,1.63 µM
CC(=O)O[C@H]1/C=C/C(C)(C)CC2=C(C)[C@@H](OC(C)=O)[C@]3(C[C@@H](C)C=C3/C=C\1C)O2,15 µM,26 µM,26 µM,26 µM,26 µM,5.68 µM
CC1=C2CC(C)(C)/C=C/[C@H](OC(=S)n3ccnc3)/C(C)=C\C3=C[C@H](C)C[C@]3(O2)C1=O,5.85 µM,26 µM,26 µM,26 µM,26 µM,5.67 µM
CC1=C2CC(C)(C)/C=C/[C@H](OC(=S)Sc3ccccc3)/C(C)=C\C3=C[C@H](C)C[C@]3(O2)C1=O,15 µM,26 µM,26 µM,26 µM,26 µM,15 µM
C/C1=C/C2=C[C@H](C)C[C@@]23O[C@]2(CC(C)(C)C[C@@H]2[C@@H]1OC(=S)Sc1ccccc1)[C@@H](C)C3=O,5.69 µM,17.8 µM,26 µM,26 µM,26 µM,8.88 µM
C/C1=C/C2=C[C@H](C)C[C@@]23O[C@]2(CC(C)(C)[C@@H](Br)[C@@H]2C1=O)[C@](C)(Br)C3=O,15 µM,26 µM,26 µM,26 µM,4.38 µM,15 µM
C/C1=C/C2=C[C@H](C)CC2(Br)C(=O)[C@@]2(C)O[C@@H]([C@@H](Br)C1=O)C(C)(C)CC2=O (some centres undefined),15 µM,26 µM,26 µM,26 µM,26 µM,15 µM
COc1ccc(/C2=C\C(=O)/C(C)=C\C3=C[C@H](C)C[C@@]34OC(=C(C)C4=O)CC2(C)C)cc1,15 µM,26 µM,26 µM,26 µM,26 µM,15 µM
CC1=C2CC(C)(C)/C(c3ccccc3)=C/C(=O)/C(C)=C\C3=C[C@H](C)C[C@]3(O2)C1=O,15 µM,26 µM,26 µM,26 µM,26 µM,15 µM
C/C1=C/C2=C[C@H](C)C[C@@]23O[C@]2(CC(C)(C)[C@@H](O)[C@@H]2C1=O)[C@@H](C)C3=O,15 µM,26 µM,10.4 µM,26 µM,26 µM,15 µM
CO[C@H]1[C@@H]2C(=O)/C(C)=C\C3=C[C@H](C)C[C@@]34O[C@]2(CC1(C)C)[C@@H](C)C4=O,15 µM,26 µM,26 µM,26 µM,26 µM,15 µM
C/C1=C/C2=C[C@H](C)C[C@@]23O[C@]2(CC(C)(C)C4CC1(ON4)O2)C(C)C3=O (some centres undefined),15 µM,26 µM,26 µM,26 µM,26 µM,15 µM
C/C1=C/C2=C[C@H](C)C[C@@]23O[C@]2(CC(C)(C)[C@@H](Nc4ccccc4)[C@@H]2C1=O)[C@@H](C)C3=O,5.58 µM,26 µM,12.6 µM,26 µM,26 µM,8.88 µM
CC1=C2CC(C)(C)CCC(=O)C(C)CC3C[C@H](C)C[C@]3(O2)C1=O (mixture of isomers),15 µM,26 µM,26 µM,26 µM,26 µM,15 µM
CC1=C2CC(C)(C)CCC(=O)C(C)CC3=C[C@H](C)C[C@]3(O2)C1=O (mixture of isomers),15 µM,26 µM,26 µM,26 µM,26 µM,15 µM
CC(=O)O[C@H]1CC[C@]2(C)[C@H]3CC[C@]4(C)C(=CC[C@@]5(C(=O)O)CCC(C)(C)C[C@H]54)[C@]3(C)CC[C@H]2C1(C)C [ACETYL ALEURITOLIC ACID],15 µM,26 µM,26 µM,26 µM,26 µM,15 µM
